# Measured values as given in ChEMBL document CHEMBL4680105, “Discovery of Benzenesulfonamide Derivatives as Carbonic Anhydrase Inhibitors with Effective Anticonvulsant Action: Design, Synthesis, and Pharmacological Evaluation” (J Med Chem, 2018).
# What was measured:
# [1] = target: Carbonic anhydrase 9 (Homo sapiens, UniProt Q16790); test: Inhibition of recombinant human carbonic anhydrase 9 by stopped-flow CO2 hydration assay
# [2] = tested on: Mus musculus; test: Anticonvulsant activity in Swiss Albino mouse model of maximal electroshock-induced seizure assessed as protection against seizure by measuring suppression of hind limb extension at 30 mg/kg, ip pretreated for 30 mins before seizure stimulation and measured after 0.5 hrs by MES test relative to control; format: functional; details: time 60 min, 1 h
# [3] = tested on: Mus musculus; test: Anticonvulsant activity in Swiss Albino mouse model of maximal electroshock-induced seizure assessed as protection against seizure by measuring suppression of hind limb extension at 100 mg/kg, ip pretreated for 30 mins before seizure stimulation and measured after 0.5 hrs by MES test relative to control; format: functional; details: time 60 min, 1 h
# [4] = tested on: Mus musculus; test: Anticonvulsant activity in Swiss Albino mouse model of maximal electroshock-induced seizure assessed as protection against seizure by measuring suppression of hind limb extension at 30 mg/kg, ip pretreated for 30 mins before seizure stimulation and measured after 3 hrs by MES test relative to control; format: functional; details: time 3.5 hrs
# [5] = tested on: Mus musculus; test: Anticonvulsant activity in Swiss Albino mouse model of maximal electroshock-induced seizure assessed as protection against seizure by measuring suppression of hind limb extension at 100 mg/kg, ip pretreated for 30 mins before seizure stimulation and measured after 3 hrs by MES test relative to control; format: functional; details: 0.5 h
# [6] = tested on: Mus musculus; test: Anticonvulsant activity in Swiss Albino mouse assessed as protection against seizure at 30 mg/kg, ip measured after 0.5 hrs by sc-PTZ seizure test relative to control; format: functional
# [7] = tested on: Mus musculus; test: Anticonvulsant activity in Swiss Albino mouse assessed as protection against seizure at 100 mg/kg, ip measured after 0.5 hrs by sc-PTZ seizure test relative to control; format: functional
# [8] = tested on: Mus musculus; test: Anticonvulsant activity in Swiss Albino mouse model of maximal electroshock-induced seizure assessed as protection against seizure by measuring suppression of hind limb extension at 30 mg/kg, po pretreated for 30 mins before seizure stimulation and measured after 0.25 hrs by MES test relative to control; format: functional; details: 0.5 h
# [9] = tested on: Mus musculus; test: Anticonvulsant activity in Swiss Albino mouse model of maximal electroshock-induced seizure assessed as protection against seizure by measuring suppression of hind limb extension at 30 mg/kg, po pretreated for 30 mins before seizure stimulation and measured after 1 hrs by MES test relative to control; format: functional; details: time 1.5 hrs
# [10] = tested on: Mus musculus; test: Anticonvulsant activity in Swiss Albino mouse model of maximal electroshock-induced seizure assessed as protection against seizure by measuring suppression of hind limb extension at 30 mg/kg, po pretreated for 30 mins before seizure stimulation and measured after 2 hrs by MES test relative to control; format: functional; details: time 2.5 hrs
# [11] = tested on: Mus musculus; test: Anticonvulsant activity in Swiss Albino mouse model of maximal electroshock-induced seizure assessed as protection against seizure by measuring suppression of hind limb extension at 30 mg/kg, po pretreated for 30 mins before seizure stimulation and measured after 4 hrs by MES test relative to control; format: functional; details: time 4.5 hrs
# [12] = tested on: Mus musculus; test: Anticonvulsant activity in Swiss Albino mouse model of maximal electroshock-induced seizure assessed as protection against seizure by measuring suppression of hind limb extension at 30 mg/kg, ip pretreated for 30 mins before seizure stimulation and measured after 1 hrs by MES test relative to control; format: functional; details: time 1.5 hrs
# [13] = tested on: Mus musculus; test: Anticonvulsant activity in Swiss Albino mouse model of maximal electroshock-induced seizure assessed as protection against seizure by measuring suppression of hind limb extension at 30 mg/kg, ip pretreated for 30 mins before seizure stimulation and measured after 2 hrs by MES test relative to control; format: functional; details: time 2.5 hrs
# [14] = tested on: Mus musculus; test: Anticonvulsant activity in Swiss Albino mouse model of maximal electroshock-induced seizure assessed as protection against seizure by measuring suppression of hind limb extension at 30 mg/kg, ip pretreated for 30 mins before seizure stimulation and measured after 4 hrs by MES test relative to control; format: functional; details: time 4.5 hrs
# [15] = tested on: Mus musculus; test: Anticonvulsant activity in Swiss Albino mouse model of maximal electroshock-induced seizure assessed as protection against seizure by measuring suppression of hind limb extension at 30 mg/kg, ip pretreated for 30 mins before seizure stimulation and measured after 6 hrs by MES test relative to control; format: functional; details: time 6.5 hrs
# [16] = Neurotoxicity in Swiss Albino mouse by rotarod test at 30 mg/kg. ip measured up to 120 mins by rotarod test; format: toxicity, organism-based; details: in vivo, 2 h
# [17] = Sub-acute toxicity in Wistar rat at 100 mg/kg, po for 14 days; format: organism-based; details: in vivo, 336 h, time 14 day
# [18] = Sub-acute toxicity in Wistar rat assessed as mortality level at 100 mg/kg, po for 14 days; format: organism-based; details: in vivo, 336 h, time 14 day
# [19] = Hematological toxicity in Wistar rat assessed as Hb level at 100 mg/kg, po for 14 days (reference value: 12.7 +/- 1.5 g/dL); format: organism-based; details: in vivo, 336 h, time 14 day
# [20] = Hematological toxicity in Wistar rat assessed as TLC level at 100 mg/kg, po for 14 days (reference value: 6.3 +/- 1.4 10^3/ml); format: organism-based; details: in vivo, 336 h, time 14 day
# [21] = Hematological toxicity in Wistar rat assessed as neutrophils level at 100 mg/kg, po for 14 days (reference value: 20.8 +/- 5.8%); format: organism-based; details: in vivo, 336 h, time 14 day
# [22] = Hematological toxicity in Wistar rat assessed as lymphocytes level at 100 mg/kg, po for 14 days (reference value: 74.6 +/- 4.3%); format: organism-based; details: in vivo, 336 h, time 14 day
# [23] = Hematological toxicity in Wistar rat assessed as eosinophils level at 100 mg/kg, po for 14 days (reference value: 2.3 +/- 1.2%); format: organism-based; details: in vivo, 336 h, time 14 day
# [24] = Hematological toxicity in Wistar rat assessed as monocytes level at 100 mg/kg, po for 14 days (reference value: 2.5 +/- 1.5%); format: organism-based; details: in vivo, 336 h, time 14 day
# [25] = Hematological toxicity in Wistar rat assessed as basophils level at 100 mg/kg, po for 14 days (reference value: 0.3 +/- 0.5%); format: organism-based; details: in vivo, 336 h, time 14 day
# [26] = Hematological toxicity in Wistar rat assessed as RBC level at 100 mg/kg, po for 14 days (reference value: 7.9 +/- 0.94 10^6/mm3); format: organism-based; details: in vivo, 336 h, time 14 day
# [27] = Hematological toxicity in Wistar rat assessed as platelet count level at 100 mg/kg, po for 14 days (reference value: 698 +/- 156 10^3/mm3); format: organism-based; details: in vivo, 336 h, time 14 day
# [28] = Hepatotoxicity in Wistar rat assessed as SGPT level at 100 mg/kg, po for 14 days (reference value: 59.2 +/- 12.5 U/L) by liver function test; format: toxicity, organism-based; details: in vivo, 336 h, time 14 day
# [29] = Renal toxicity in Wistar rat assessed as blood urea level at 100 mg/kg, po for 14 days (Rvb =34.7 +/- 9.9 mg/dL) by kidney function test; format: organism-based; details: in vivo, 336 h, time 14 day
# [30] = Renal toxicity in Wistar rat assessed as creatinine level at 100 mg/kg, po for 14 days (reference value: 0.75 +/- 0.1 mg/dL) by kidney function test; format: organism-based; details: in vivo, 336 h, time 14 day
# [31] = Renal toxicity in Wistar rat assessed as uric acid level at 100 mg/kg, po for 14 days (reference value: 4.33 +/- 2.5 mg/dL) by kidney function test; format: organism-based; details: in vivo, 336 h, time 14 day
# [32] = Renal toxicity in Wistar rat assessed as Na+ level at 100 mg/kg, po for 14 days (reference value: 144 +/- 2.8 mequiv/L) by kidney function test; format: organism-based; details: in vivo, 336 h, time 14 day
compound,measurement,setting,value
NS(=O)(=O)c1ccc(CNC(=O)CCN2CCN(Cc3ccc4c(c3)OCO4)CC2)cc1,Ki,[1],0.104 µM
same,Activity,[2],67%
same,Activity,[3],83%
same,Activity,[4],67%
same,Activity,[5],67%
same,Activity,[6],83%
same,Activity,[7],50%
same,Activity,[8],17%
same,Activity,[9],67%
same,Activity,[10],67%
same,Activity,[11],50%
same,Activity,[12],80%
same,Activity,[13],60%
same,Activity,[14],70%
same,Activity,[15],50%
same,Activity,[16],Non-Toxic
same,Activity,[17],Non-Toxic
same,Activity,[18],Non-Toxic
same,Activity,[19],12.6 g/dL
same,Activity,[20],7.5 10^3/ml
same,Activity,[21],22.3%
same,Activity,[22],74%
same,Activity,[23],2.3%
same,Activity,[24],2.3%
same,Activity,[25],0.16%
same,Activity,[26],7.7 10^6/mm3
same,Activity,[27],662.3 10^3/mm3
same,Activity,[28],52.9 U/L
same,Activity,[29],39.8 mg/dL
same,Activity,[30],0.75 mg/dL
same,Activity,[31],2.73 mg/dL
same,Activity,[32],144 mEq/L
